Reference: patent US20030215817A1, “Modulation of gene expression in formation of fatty atherosclerotic lesions” (priority 2003, published 2003)
Structures can show the parent of a compound that is named as a salt.

How the values were obtained:
[1] = test system: Rec1_36 (TTAG 155) mRNA; test: quantified RT-PCR, Rec1_36; type: in vivo, rabbit; conditions: hypercholesterolemic plus lercanidipine racemate, eight weeks, H2 (normocholesterolemic)=1.0
Experimental: (§1) Nineteen of the isolated DST clones were further validated using RT-PCR analyses; the data are presented in FIGS. 6-24 and in Tables 5-23, below. For each DST examined, the optimal annealing temperature and reagent conditions were determined for the corresponding set of primers (see Table 25) based on results from a preliminary experiment. In eight separate reactions, each set of primers was assayed to find the optimal conditions by adjusting the following four parameters: primer concentration, dNTP concentration, MgCl2 concentration, and number of Taq polymerase units. Once optimal conditions were determined, each DST was run in duplicate multiple simultaneous reactions which usually included at least four dilutions of template (cDNA library), plus control reactions lacking template, and six sequential data points for numbers of cycles.
Reactions were performed using “Hot Start” PCR with the Clontech TaqStart antibody system (Cat. #5400-1). Each reaction contained 1 ml of the cDNA library dilution as template, determined amounts of AmpliTaq DNA polymerase (cat. #N808-0156), MgCl2, dNTPs (GibcoBRL cat. #10297-018), primer, and Clontech TaqStart Antibody in a 20 ml final reaction volume using 10×Taq buffer II (without MgCl2). Typically, a master mix containing all components except the template was prepared and aliquoted. […] At various times during the PCR run, tubes were removed sequentially on a predetermined schedule in order to quantitate expression of the target DST over a “window” of cycle times. After amplification, the samples were quantified via fluorimetry.
PCR was performed at annealing temperatures that were five degrees above the average melting temperature of each primer pair. For primers greater than 10 bases (in a 0.05M salt solution), melting temperature was calculated using the following formula: Tm=59.9+41[% GC]−[675/Primer Length], where %GC is the decimal value. Following determination of the average melting temperature of the primer pair, the annealing temperature was determined by adding five degrees to the average melting temperature. […]

[2] = test system: REC1_16 (TCGG 195) mRNA; test: quantified RT-PCR, Rec1_16; type: in vivo, rabbit; conditions: for Relative Abundance Rec1_16, 20 pg F: hypercholesterolemic plus lercanidipine racemate, eight weeks, H2 (normocholesterolemic)=1.0
Experimental: as §1
(§2) Reactions were performed using “Hot Start” PCR with the Clontech TaqStart antibody system (Cat. #5400-1). Each reaction contained 1 ml of the cDNA library dilution as template, determined amounts of AmpliTaq DNA polymerase (cat. #N808-0156), MgCl2, dNTPs (GibcoBRL cat. #10297-018), primer, and Clontech TaqStart Antibody in a 20 ml final reaction volume using 10×Taq buffer II (without MgCl2). Typically, a master mix containing all components except the template was prepared and aliquoted. Various templates were then added to these master mix samples and 20 ml volumes were subsequently dispensed into individual reaction tubes. At various times during the PCR run, tubes were removed sequentially on a predetermined schedule in order to quantitate expression of the target DST over a “window” of cycle times. After amplification, the samples were quantified via fluorimetry.
(§3) PCR was performed at annealing temperatures that were five degrees above the average melting temperature of each primer pair. For primers greater than 10 bases (in a 0.05M salt solution), melting temperature was calculated using the following formula: Tm=59.9+41[% GC]−[675/Primer Length], where %GC is the decimal value. Following determination of the average melting temperature of the primer pair, the annealing temperature was determined by adding five degrees to the average melting temperature. PCR was performed using the following program: 1) 95 degrees Celsius, 3 minutes; 2) 95 degrees Celsius, 30 seconds; 3) TM+5 degrees Celsius, 30 seconds; 4) 72 degrees Celsius, for a time dependent on target length at 16 bp/second; 5) repeat steps 2-4 33 more cycles; 6) 72 degrees Celsius, 3 minutes; 7) 14 degrees Celsius, forever.
(§4) Following temperature cycling, 2 ml of the PCR reaction was added to 140 ml of a 1:280 dilution of PicoGreen (Molecular Probes cat. #P-11495 (10×100 ml)) in TE pH 7.5 in a 96-well Costar UV microtiter plate (Fisher cat. #07-200623). The samples were mixed gently for 1.5 minutes and allowed to equilibrate at room temperature in the dark for 15 minutes. The concentration of the PCR products was quantified by fluorimetry using a PerSeptive Biosystems CytoFluor series 4000 multi-well plate reader.
Background fluorescence was determined by using duplicate control samples that were cycled with all reaction components except the template. […] The sensitivity of the PicoGreen dsDNA assay is reported to be 250 pg/ml (50 pg dsDNA in a […] assay volume) using a fluorescence microplate reader such as was used in these measurements. […]

[3] = test system: Rec1_12 (GCCC 232) mRNA; test: quantified RT-PCR, Rec1_12; type: in vivo, rabbit; conditions: for Relative Abundance Rec1_12, 20 pg F: hypercholesterolemic plus lercanidipine racemate, eight weeks, H2 (normocholesterolemic)=1.0
Experimental: as §1, §2, §3, §4
(§5) Background fluorescence was determined by using duplicate control samples that were cycled with all reaction components except the template. The mean value from these duplicate background control samples was subtracted from the corresponding experimental values prior to analyzing results. The sensitivity of the PicoGreen dsDNA assay is reported to be 250 pg/ml (50 pg dsDNA in a […] assay volume) using a fluorescence microplate reader such as was used in these measurements. […]

[4] = test system: Rec1_20 (TTAC 210) mRNA; test: quantified RT-PCR, Rec1_20; type: in vivo, rabbit; conditions: for Relative Abundance Rec1_20, 20 pg F: hypercholesterolemic plus lercanidipine racemate, eight weeks, H2 (normocholesterolemic)=1.0
Experimental: as §1, §2, §3, §4, §5

[5] = test system: Rec1_24 (CCGG 232) mRNA; test: quantified RT-PCR, Rec1_24; type: in vivo, rabbit; conditions: for Relative Abundance Rec1_24, 100 pg D: hypercholesterolemic plus lercanidipine R (−), eight weeks, H2 (normocholesterolemic)=1.0
Experimental: as §1, §2, §3, §4
(§6) Background fluorescence was determined by using duplicate control samples that were cycled with all reaction components except the template. The mean value from these duplicate background control samples was subtracted from the corresponding experimental values prior to analyzing results. The sensitivity of the PicoGreen dsDNA assay is reported to be 250 pg/ml (50 pg dsDNA in a […] assay volume) using a fluorescence microplate reader such as was used in these measurements.
FIG. 23 is a graphical representation of the results of RT-PCR using 100 pg of clone REC1—24 template, in which the amount of PCR product (measured in arbitrary fluorescence units) is plotted against number of cycles, where polyA enriched mRNA was extracted from aortas of rabbits that were normocholesterolemic (filled diamonds, “H2”) and hypercholesterolemic plus lercanidipine R (−), eight weeks (filled squares, “D”).

[6] = test system: Rec1_22 (TGGG 164) mRNA; test: quantified RT-PCR, Rec1_22; type: in vivo, rabbit; conditions: for Relative Abundance Rec1_22, 20 pg D: hypercholesterolemic plus lercanidipine R (−), eight weeks, H2 (normocholesterolemic)=1.0
Experimental: as §1, §2, §3, §4, §6
FIG. 22 is a graphical representation of the results of RT-PCR using 20 pg of clone REC1—22 template, in which the amount of PCR product (measured in arbitrary fluorescence units) is plotted against number of cycles, where polyA enriched mRNA was extracted from aortas of rabbits that were normocholesterolemic (filled diamonds, “H2”) and hypercholesterolemic plus lercanidipine R (−), eight weeks (filled squares, “D”).

[7] = test system: calcium channel; conditions: (R)-enantiomer compared with the other enantiomer of lercanidipine; cited from earlier work
[8] = hypercholesterolemic animals receiving lercanidipine
[9] = hypercholesterolemic animals receiving lercanidipine R (−) compared to normocholesterolemic animals

Compound: COC(=O)C1=C(C)NC(C)=C(C(=O)OC(C)(C)CN(C)CCC(c2ccccc2)c2ccccc2)C1c1cccc([N+](=O)[O-])c1 (racemic) [lercanidipine, lercanidipine hydrochloride]
- Relative Abundance Rec1_36, 100 pg F ([1]; cycle 30): 0.2
- Relative Abundance Rec1_36, 100 pg F ([1]; cycle 32): 0.5
- Relative Abundance Rec1_36, 100 pg F ([1]; cycle 34): 0.4
- Relative Abundance Rec1_16, 20 pg F ([2]; cycle 28): 0.0
- Relative Abundance Rec1_16, 20 pg F ([2]; cycle 30): 0.2
- Relative Abundance Rec1_16, 20 pg F ([2]; cycle 32): 0.6
- Relative Abundance Rec1_16, 20 pg F ([2]; cycle 34): 0.3
- expression of Rec1_16 at 8 weeks (RT-PCR study), in words [2, 8]: decreased
- Relative Abundance Rec1_12, 20 pg F ([3]; cycle 26): 0.1
- Relative Abundance Rec1_12, 20 pg F ([3]; cycle 28): 0.0
- Relative Abundance Rec1_12, 20 pg F ([3]; cycle 30): 0.4
- Relative Abundance Rec1_12, 20 pg F ([3]; cycle 32): 0.6
- Relative Abundance Rec1_12, 20 pg F ([3]; cycle 34): 0.6
- Relative Abundance Rec1_12, 20 pg F ([3]; cycle 36): 0.6
- expression of Rec1_12 at 8 weeks (RT-PCR study), in words [3, 8]: decreased
- Relative Abundance Rec1_20, 20 pg F ([4]; cycle 26): 0.0
- Relative Abundance Rec1_20, 20 pg F ([4]; cycle 28): 0.1
- Relative Abundance Rec1_20, 20 pg F ([4]; cycle 30): 0.2
- Relative Abundance Rec1_20, 20 pg F ([4]; cycle 32): 0.2
- Relative Abundance Rec1_20, 20 pg F ([4]; cycle 34): 0.2
- expression of Rec1_20 at 8 weeks (RT-PCR study), in words [4, 8]: decreased

Compound: COC(=O)C1=C(C)NC(C)=C(C(=O)OC(C)(C)CN(C)CCC(c2ccccc2)c2ccccc2)[C@@H]1c1cccc([N+](=O)[O-])c1.Cl (single isomer, unassigned) [(R)-lercanidipine]
- Relative Abundance Rec1_24, 100 pg D ([5]; cycle 24): 0.3
- Relative Abundance Rec1_24, 100 pg D ([5]; cycle 26): 0.5
- Relative Abundance Rec1_24, 100 pg D ([5]; cycle 28): 0.7
- Relative Abundance Rec1_24, 100 pg D ([5]; cycle 30): 0.9
- Relative Abundance Rec1_24, 100 pg D ([5]; cycle 32): 0.9
- Relative Abundance Rec1_24, 100 pg D ([5]; cycle 34): 1.1
- expression of Rec1_24 at 8 weeks (RT-PCR study), in words [5, 9]: generally somewhat decreased
- Relative Abundance Rec1_22, 20 pg D ([6]; cycle 26): 0.0
- Relative Abundance Rec1_22, 20 pg D ([6]; cycle 28): 0.0
- Relative Abundance Rec1_22, 20 pg D ([6]; cycle 30): 0.5
- Relative Abundance Rec1_22, 20 pg D ([6]; cycle 32): 0.7
- Relative Abundance Rec1_22, 20 pg D ([6]; cycle 34): 0.8
- expression of Rec1_22 at 8 weeks (RT-PCR study), in words [6, 9]: decreased
- effectiveness as a ligand to the calcium channel, less effective [7]: 2-3 orders of magnitude
